# Measured values from ChEMBL document CHEMBL1201862, “PubChem BioAssay data set” (2004).
# Activity calls are given as the source filed them.
# Tests used:
# [1] = target: T1, Methionyl-tRNA synthetase, putative (Trypanosoma brucei brucei, UniProt Q38C91); type: functional, Trypanosoma brucei brucei strain 927/4 GUTat10.1
# [2] = target: T1, Methionyl-tRNA synthetase, putative; type: functional, Trypanosoma brucei brucei strain 927/4 GUTat10.1; remark: listed apart in the source
# [3] = Counterscreen for inhibitors of Trypanosoma brucei methionyl tRNA synthetase (MetRS): Luminescence-based cell-based high throughput dose response assay to identify compounds that are cytotoxic to Jurkat human T lymphocyte cells.; type: functional
# [4] = target: Aryl hydrocarbon receptor (Homo sapiens, UniProt P35869); conditions: Potency;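 note: confirmatory quantitative high-throughput screen measuring activation of the AhR signaling pathway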
# [5] = target: T2, Calpain-2 catalytic subunit (Sus scrofa, UniProt P43367); test: m-calpain protease blockers, concentration series – biochemical, fluorogenic peptide substrate, dose response (AID 1420); type: functional
# T2 sequence (P43367 whole entry): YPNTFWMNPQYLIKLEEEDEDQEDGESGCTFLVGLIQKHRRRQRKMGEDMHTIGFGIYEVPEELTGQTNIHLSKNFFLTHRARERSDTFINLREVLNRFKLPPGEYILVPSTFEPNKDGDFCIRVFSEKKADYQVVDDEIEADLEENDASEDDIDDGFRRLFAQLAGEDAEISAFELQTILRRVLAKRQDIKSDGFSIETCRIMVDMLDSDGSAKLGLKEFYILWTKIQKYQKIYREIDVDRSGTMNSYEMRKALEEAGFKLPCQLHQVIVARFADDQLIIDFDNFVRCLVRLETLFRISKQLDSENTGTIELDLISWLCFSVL
# [6] = target: T3, Low molecular weight phosphotyrosine protein phosphatase (Homo sapiens, UniProt P24666); type: functional; conditions: read-out: IC50_Mean
# T3 sequence (P24666 whole entry): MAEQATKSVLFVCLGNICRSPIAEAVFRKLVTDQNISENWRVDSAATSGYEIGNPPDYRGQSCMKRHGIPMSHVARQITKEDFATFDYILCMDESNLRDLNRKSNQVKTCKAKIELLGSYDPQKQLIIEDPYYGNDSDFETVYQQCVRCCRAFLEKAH
# [7] = target: T3, Low molecular weight phosphotyrosine protein phosphatase; type: functional; conditions: read-out: IC50_Mean; remark: listed apart in the source
# [8] = target: Potassium voltage-gated channel subfamily KQT member 2 (Rattus norvegicus, UniProt O88943); test: blockers of KCNQ2 channel current – cell-based, automated electrophysiology, set II, rat KCNQ2, dose response (AID 588637); type: functional
# [9] = target: Dual specificity protein phosphatase 3 (Homo sapiens, UniProt P51452); test: VHR phosphatase inhibition, dose response, selectivity assay for STEP inhibitor project, biochemical (AID 602374); type: functional; conditions: read-out: IC50_Mean
# [10] = target: Tyrosine-protein phosphatase non-receptor type 11 (Homo sapiens, UniProt Q06124); test: PTPN11 enzyme inhibitors – biochemical, selectivity assay for STEP inhibitor project, dose response (AID 602367); type: functional; conditions: read-out: IC50_Mean
# [11] = target: Tyrosine-protein phosphatase non-receptor type 5 (Homo sapiens, UniProt P54829); test: PTPN5 enzyme inhibition – biochemical, fluorescence intensity, uHTS hits, confirmation (AID 602372); type: functional; conditions: read-out: IC50_Mean
# [12] = bead-based luminescence quenchers, dual-tagged ARNT – biochemical, AlphaScreen, cherry-pick, artefact control for ARNT-TACC3 interaction inhibitor project, dose response (AID 651705); type: functional;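 note: AlphaScreen bead proximity signal that flags compounds interfering with the detection technology; potency reflects signal decrease which marks the compound as an assay artifact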
# Interleukin-8 [13] = target: T4, Interleukin-8 (Homo sapiens, UniProt P10145); test: Dose Response confirmation of uHTS small molecule hits for cystic fibrosis induced NFkb Inhibitors in a TNFa-induced IL8 counterscreen.; type: functional; conditions: read-out: IC50_Mean
# Interleukin-8 [14] = target: T4, Interleukin-8; test: Dose Response confirmation of uHTS small molecule hits for cystic fibrosis induced NFkb Inhibitors in a PAF-induced IL8 counterscreen.; type: functional; conditions: read-out: IC50_Mean
# SUMO-activating enzyme [15] = target: T5, SUMO-activating enzyme (Homo sapiens, UniProt Q9UBT2); test: blockers of UBC9-mediated SUMO conjugation – biochemical, AlphaScreen, SUMOylation inhibitor project, confirmation (AID 2018); type: functional
# SUMO-activating enzyme [16] = target: T5, SUMO-activating enzyme; test: blockers of SAE1/SAE2–UBC9 SUMO transfer – biochemical, HTRF, uHTS, primary screen (AID 2006); type: protein-complex assay
# [17] = target: T6, Sentrin-specific protease 8 (Homo sapiens, UniProt Q96LD8); type: functional
# T6 sequence (Q96LD8 whole entry): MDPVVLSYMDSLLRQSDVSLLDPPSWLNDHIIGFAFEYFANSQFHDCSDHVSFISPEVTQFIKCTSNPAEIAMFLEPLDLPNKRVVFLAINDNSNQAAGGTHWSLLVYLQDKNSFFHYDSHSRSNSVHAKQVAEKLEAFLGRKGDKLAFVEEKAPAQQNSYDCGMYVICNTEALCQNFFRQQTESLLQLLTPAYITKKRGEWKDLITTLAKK
# [18] = target: T6, Sentrin-specific protease 8; type: functional; remark: listed apart in the source
# [19] = test system: Streptococcus sp. 'group A'; test: Streptococcus pyogenes SK(-)GAS viability under kanamycin – luminescence, BacTiterGlo, confirmation, counter-screen for streptokinase expression inhibitor project, dose response (AID 1900); type: functional, organism-based
# [20] = NIH3T3 cell viability loss – ATP luminescence, mouse fibroblasts, counter-screen, dose response (AID 2010); type: functional, cell-based;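 note: cells exposed to compound for about 90 hours before reading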
# [21] = general cell-killing toxicity readout – plate reader, dry powder samples, cytotoxicity control for PAX8 inhibitor project, dose response (AID 743021); type: functional, cell-based
# Streptokinase A = target: T7, Streptokinase A (Streptococcus pyogenes serotype M1, UniProt P10520); test: viability-normalized secreted streptokinase activity reduction – plasminogen activation absorbance, OD405, dose response (AID 1914); type: functional, Streptococcus pyogenes M1 GAS;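 note: secreted streptokinase activity via plasminogen activation per viability signal from cell pellet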
# T7 sequence (P10520 whole entry): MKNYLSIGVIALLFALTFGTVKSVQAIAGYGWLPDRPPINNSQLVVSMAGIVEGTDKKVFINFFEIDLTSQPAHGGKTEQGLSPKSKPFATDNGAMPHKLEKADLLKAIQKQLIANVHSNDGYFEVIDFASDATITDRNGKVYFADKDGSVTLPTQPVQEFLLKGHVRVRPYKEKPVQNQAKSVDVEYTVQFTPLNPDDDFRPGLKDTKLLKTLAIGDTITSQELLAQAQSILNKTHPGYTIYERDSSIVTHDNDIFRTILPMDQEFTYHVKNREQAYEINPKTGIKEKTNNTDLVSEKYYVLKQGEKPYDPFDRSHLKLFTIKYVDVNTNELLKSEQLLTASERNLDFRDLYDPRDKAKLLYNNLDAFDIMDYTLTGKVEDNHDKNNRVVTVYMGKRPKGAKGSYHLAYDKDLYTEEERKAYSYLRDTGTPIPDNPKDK
# [22] = Trypanosoma cruzi growth suppression in host cells – NIH3T3 host cells, beta-gal luminescence, confirmation (AID 2044); type: functional, cell-based;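 note: intracellular parasites grown in NIH/3T3 mouse fibroblasts as host cells; luminescent beta-galactosidase reporter signal from transgenic T. cruzi replicating inside host cells; inhibitors lower the luminescence signal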
# [23] = cAMP pathway inhibition in counterscreen cell line – TR-FRET cAMP detection, counter-screen for MC4R biased antagonist project, dose response (AID 602305); type: functional, cell-based;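 note: U2OS cells stimulated with forskolin near its EC80 as the cAMP inducer; potency is for inhibition of forskolin-stimulated cAMP signaling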
# [24] = target: T8, E3 ubiquitin-protein ligase XIAP (Homo sapiens, UniProt P98170); test: Counter Screen using XIAP-Bir3 for Chemical Antagonists of Bir1/2 domains of IAP-family anti-apoptotic proteins. [Related pubchem assays (depositor defined):AID1018, AID1449, AID1514, AID1638, AID1749, AID1750, AID488957, AID488963]
# [25] = target: T8, E3 ubiquitin-protein ligase XIAP; test: small molecules displacing peptide from XIAP – biochemical, IAP family, fluorescence polarization (AID 1018); type: functional
# Streptococcus = test: GAS UMAA2166 growth inhibition – luminescence, BacTiterGlo, counter-screen for streptokinase expression inhibitor project, dose response (AID 1915); type: functional, organism-based;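 note: potency for reduction of bacterial viability or growth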
# Paired box protein Pax-8 = Paired box protein Pax-8 (Homo sapiens, UniProt Q06710); test: PAX8 transcriptional activity inhibition in RMG-I – RMG-I cells, luciferase, cherry-pick, dose response (AID 687027); type: functional, cell-based;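 note: luciferase reporter driven by Pax8 target thyroperoxidase promoter measured by SteadyGlo luminescence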
# Melanocortin receptor 4 = Melanocortin receptor 4 (Homo sapiens, UniProt P32245); test: inhibitors of MC4R cAMP signaling – cell-based, TR-FRET, biased antagonists, dose response (AID 602298); type: functional;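 note: antagonist potency against agonist-stimulated cAMP production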
# [26] = target: Ras and Rab interactor 1/Tyrosine-protein kinase ABL1 (Homo sapiens, UniProt P00519+Q13671); type: functional;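 note: biochemical TR-FRET dose-response test measuring inhibition of binding between Rin1 and Abl proteins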
# [27] = mouse fibroblast viability loss – cell-based, cherry-pick samples, set 2, cytotoxicity control for T. cruzi growth inhibitor project, dose response (AID 651817); type: functional; conditions: NIH3T3
# [28] = target: T9, Probable nicotinate-nucleotide adenylyltransferase (Staphylococcus aureus (strain N315), UniProt P65502); type: functional, Staphylococcus aureus subsp. aureus N315; conditions: read-out: IC50_Mean;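 for IC50 Mean: confirmatory dose-response retesting of NadD inhibitor hits first found in an ultra-high-throughput screen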
# Cytochrome P450 1A2 = target: T10, Cytochrome P450 1A2 (Homo sapiens, UniProt P05177);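 note: PubChem cytochrome P450 panel assay, CYP1A2 panel member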
# T10 sequence (P05177 whole entry): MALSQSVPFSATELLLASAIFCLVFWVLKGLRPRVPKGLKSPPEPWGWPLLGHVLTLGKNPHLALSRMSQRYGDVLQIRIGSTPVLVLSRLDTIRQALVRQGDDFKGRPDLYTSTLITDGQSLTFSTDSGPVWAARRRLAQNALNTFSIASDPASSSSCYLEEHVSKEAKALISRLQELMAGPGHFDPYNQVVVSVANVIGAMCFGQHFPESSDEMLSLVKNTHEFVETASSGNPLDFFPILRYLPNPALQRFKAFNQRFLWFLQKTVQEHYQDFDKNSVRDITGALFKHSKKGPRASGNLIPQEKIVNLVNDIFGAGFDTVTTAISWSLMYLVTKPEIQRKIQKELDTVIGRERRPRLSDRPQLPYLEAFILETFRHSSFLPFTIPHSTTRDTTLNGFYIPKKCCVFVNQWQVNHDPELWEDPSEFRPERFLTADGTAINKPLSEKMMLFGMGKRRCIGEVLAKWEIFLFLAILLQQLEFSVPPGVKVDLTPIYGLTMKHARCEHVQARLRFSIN
# [29] = target: T9, Probable nicotinate-nucleotide adenylyltransferase; type: functional, Staphylococcus aureus subsp. aureus N315
# [30] = microbe, parasite or virus in culture; type: functional; conditions: Mycobacterium tuberculosis
# [31] = target: Botulinum neurotoxin type F (Clostridium botulinum, UniProt P30996); test: High-throughput multiplex microsphere dose response for inhibitors of toxin protease, specifically Botulinum neurotoxin light chain F protease, compounds from Cherry Pick 02.; type: functional; conditions: read-out: EC50_MICROM
# T8 sequence (P98170 whole entry): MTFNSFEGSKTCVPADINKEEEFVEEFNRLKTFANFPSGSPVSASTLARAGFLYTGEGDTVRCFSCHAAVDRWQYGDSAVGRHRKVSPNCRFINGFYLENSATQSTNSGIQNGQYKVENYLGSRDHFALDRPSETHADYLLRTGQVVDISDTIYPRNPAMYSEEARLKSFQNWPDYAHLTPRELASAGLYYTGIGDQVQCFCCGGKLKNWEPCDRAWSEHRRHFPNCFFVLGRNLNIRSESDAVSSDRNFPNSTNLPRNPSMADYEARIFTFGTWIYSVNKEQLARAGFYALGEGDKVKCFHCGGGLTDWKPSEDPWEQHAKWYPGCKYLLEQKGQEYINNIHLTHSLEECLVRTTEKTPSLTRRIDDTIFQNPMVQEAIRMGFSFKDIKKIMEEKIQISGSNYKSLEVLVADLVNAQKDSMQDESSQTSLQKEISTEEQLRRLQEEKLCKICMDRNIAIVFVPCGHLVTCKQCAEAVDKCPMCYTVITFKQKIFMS
# T1 sequence (Q38C91 whole entry): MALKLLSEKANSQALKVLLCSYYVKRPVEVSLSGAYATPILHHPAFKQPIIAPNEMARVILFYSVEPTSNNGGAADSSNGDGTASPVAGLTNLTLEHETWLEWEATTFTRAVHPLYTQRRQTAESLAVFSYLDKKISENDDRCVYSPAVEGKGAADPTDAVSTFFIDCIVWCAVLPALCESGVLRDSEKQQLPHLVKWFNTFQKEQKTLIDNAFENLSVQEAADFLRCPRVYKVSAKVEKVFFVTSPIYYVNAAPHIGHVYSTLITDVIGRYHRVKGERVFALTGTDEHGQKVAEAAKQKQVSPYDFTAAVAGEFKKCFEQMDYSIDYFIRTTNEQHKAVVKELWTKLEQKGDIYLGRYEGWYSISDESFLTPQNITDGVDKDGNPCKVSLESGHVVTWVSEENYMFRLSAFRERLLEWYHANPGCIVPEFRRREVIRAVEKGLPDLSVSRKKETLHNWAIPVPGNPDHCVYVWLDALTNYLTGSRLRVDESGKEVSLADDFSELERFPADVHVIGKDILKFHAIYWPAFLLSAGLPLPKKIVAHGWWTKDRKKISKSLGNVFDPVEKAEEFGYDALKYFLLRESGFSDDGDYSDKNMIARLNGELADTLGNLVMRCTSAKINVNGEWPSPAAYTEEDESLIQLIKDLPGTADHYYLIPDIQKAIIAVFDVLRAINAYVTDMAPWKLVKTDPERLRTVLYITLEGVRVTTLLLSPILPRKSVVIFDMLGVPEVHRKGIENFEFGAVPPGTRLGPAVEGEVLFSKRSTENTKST
# T4 sequence (P10145 whole entry): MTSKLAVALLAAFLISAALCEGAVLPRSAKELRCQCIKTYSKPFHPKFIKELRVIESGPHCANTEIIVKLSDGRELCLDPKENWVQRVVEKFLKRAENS
# T5 sequence (Q9UBE0 whole entry): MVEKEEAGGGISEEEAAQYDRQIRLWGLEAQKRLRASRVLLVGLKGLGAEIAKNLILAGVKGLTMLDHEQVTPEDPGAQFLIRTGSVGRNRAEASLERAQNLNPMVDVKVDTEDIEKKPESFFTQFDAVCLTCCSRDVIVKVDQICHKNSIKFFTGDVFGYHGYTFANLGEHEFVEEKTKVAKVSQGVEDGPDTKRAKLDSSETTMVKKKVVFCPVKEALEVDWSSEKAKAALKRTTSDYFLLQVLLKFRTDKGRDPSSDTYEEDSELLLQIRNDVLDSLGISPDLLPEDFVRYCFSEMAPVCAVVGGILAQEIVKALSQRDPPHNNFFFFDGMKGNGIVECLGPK
# T5 sequence (Q9UBT2 whole entry): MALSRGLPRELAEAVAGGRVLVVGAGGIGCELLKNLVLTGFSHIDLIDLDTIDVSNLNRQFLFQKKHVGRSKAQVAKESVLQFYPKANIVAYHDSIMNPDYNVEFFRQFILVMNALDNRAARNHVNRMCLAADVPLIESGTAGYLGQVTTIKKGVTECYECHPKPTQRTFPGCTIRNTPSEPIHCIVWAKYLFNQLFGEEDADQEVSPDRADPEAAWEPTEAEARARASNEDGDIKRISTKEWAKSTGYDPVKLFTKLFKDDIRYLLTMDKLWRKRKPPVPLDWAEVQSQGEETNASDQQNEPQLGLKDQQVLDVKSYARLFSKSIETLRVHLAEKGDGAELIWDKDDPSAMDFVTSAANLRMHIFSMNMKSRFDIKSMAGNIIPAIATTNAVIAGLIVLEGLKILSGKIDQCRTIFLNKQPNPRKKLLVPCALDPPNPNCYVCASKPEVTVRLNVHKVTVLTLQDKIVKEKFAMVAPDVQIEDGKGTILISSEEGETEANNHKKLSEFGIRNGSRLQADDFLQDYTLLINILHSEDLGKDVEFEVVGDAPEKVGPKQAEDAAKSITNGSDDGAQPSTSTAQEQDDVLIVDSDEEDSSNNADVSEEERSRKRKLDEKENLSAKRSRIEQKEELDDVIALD
# T9 sequence (P65502 whole entry): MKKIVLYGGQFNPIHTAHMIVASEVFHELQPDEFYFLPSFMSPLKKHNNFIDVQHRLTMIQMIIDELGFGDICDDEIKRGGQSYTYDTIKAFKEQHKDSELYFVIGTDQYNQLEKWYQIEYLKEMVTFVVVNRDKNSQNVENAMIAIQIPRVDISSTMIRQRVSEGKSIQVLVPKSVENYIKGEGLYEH
# Chain of Dual specificity protein phosphatase 3 (P51452 whole entry): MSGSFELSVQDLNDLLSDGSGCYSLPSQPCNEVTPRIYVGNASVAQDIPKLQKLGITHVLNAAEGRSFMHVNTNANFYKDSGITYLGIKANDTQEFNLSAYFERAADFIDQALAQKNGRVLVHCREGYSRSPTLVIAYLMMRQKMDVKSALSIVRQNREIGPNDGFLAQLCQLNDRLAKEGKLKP
# Chain of Tyrosine-protein phosphatase non-receptor type 5 (P54829 whole entry): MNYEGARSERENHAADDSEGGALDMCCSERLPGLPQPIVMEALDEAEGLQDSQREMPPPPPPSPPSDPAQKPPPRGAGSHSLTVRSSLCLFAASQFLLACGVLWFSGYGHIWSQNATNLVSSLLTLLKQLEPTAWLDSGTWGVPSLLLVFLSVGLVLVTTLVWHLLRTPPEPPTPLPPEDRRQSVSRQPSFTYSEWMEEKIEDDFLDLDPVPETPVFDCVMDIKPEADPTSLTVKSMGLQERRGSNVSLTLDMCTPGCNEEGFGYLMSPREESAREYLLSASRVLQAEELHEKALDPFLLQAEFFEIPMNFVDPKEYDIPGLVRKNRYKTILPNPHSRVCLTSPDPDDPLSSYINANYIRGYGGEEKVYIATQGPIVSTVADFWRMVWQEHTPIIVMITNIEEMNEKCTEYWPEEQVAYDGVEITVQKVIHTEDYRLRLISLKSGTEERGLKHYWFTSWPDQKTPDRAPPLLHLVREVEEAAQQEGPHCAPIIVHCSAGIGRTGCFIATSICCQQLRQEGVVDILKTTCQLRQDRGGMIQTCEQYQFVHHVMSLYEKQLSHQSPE
# Chain of Tyrosine-protein phosphatase non-receptor type 11 (Q06124 whole entry): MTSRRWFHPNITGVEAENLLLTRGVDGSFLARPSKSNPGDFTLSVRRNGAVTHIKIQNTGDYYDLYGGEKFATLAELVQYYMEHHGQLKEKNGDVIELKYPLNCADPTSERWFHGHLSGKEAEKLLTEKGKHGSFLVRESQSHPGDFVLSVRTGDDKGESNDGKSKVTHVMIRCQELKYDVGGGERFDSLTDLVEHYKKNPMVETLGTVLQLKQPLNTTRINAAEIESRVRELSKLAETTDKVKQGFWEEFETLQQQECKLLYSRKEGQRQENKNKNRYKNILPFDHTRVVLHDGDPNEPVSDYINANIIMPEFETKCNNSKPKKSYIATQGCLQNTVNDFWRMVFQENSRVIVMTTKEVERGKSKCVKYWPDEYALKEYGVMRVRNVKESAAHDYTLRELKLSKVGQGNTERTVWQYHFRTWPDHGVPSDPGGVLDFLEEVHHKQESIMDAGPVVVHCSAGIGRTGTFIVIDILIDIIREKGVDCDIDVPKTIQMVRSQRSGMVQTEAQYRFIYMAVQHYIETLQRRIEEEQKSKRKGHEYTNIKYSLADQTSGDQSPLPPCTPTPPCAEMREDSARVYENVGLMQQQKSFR
# Chain of Aryl hydrocarbon receptor (P35869 whole entry): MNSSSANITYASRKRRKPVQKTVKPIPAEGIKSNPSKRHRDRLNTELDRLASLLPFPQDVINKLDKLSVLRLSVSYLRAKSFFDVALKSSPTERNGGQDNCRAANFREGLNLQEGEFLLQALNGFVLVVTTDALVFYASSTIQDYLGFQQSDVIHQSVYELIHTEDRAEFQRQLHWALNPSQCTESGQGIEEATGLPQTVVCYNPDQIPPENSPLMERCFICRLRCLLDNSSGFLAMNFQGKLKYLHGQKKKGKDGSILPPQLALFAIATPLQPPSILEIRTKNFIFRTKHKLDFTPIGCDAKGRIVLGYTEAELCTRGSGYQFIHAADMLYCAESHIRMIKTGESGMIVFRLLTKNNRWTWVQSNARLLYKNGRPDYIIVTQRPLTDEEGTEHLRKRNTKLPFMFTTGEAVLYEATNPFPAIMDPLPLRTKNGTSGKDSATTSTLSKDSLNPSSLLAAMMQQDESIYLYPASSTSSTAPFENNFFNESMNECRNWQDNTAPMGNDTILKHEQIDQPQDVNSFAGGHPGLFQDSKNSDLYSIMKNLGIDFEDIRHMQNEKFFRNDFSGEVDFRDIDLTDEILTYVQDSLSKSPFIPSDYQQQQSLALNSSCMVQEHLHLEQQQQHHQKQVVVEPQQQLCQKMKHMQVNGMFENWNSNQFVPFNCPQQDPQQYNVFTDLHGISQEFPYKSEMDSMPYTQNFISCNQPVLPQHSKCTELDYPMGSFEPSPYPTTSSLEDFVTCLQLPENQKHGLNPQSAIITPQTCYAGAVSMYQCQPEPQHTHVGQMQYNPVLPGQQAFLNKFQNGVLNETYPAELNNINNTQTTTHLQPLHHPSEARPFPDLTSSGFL
smiles,measurement,setting,value
COc1ccccc1NC(=O)c1ccc(-n2ccnc2)c([N+](=O)[O-])c1,IC50,[1],29 µM (inactive)
same,IC50,[2],55.4 µM (inactive)
same,IC50,[3],83.3 µM (inactive)
Oc1ccc(O)c2c(O)cccc12,AC50,[4],39.8 µM (inconclusive)
c1ccc(-c2cc(N3CCCCC3)c3ccccc3n2)cc1,IC50,[5],3.92 µM (not active)
same,IC50,[6],14 µM (active)
same,IC50,[7],9.25 µM (active)
CCOC(=O)N1CCC(N(CCOC)C(=O)Nc2ccc(C)c(C)c2)CC1,IC50,[8],0.477 µM (active)
Cc1ccc(Cn2cc(C=O)c(-c3ccc(C)cc3)n2)cc1,IC50,[9],73.9 µM (inactive)
same,IC50,[10],> 80 µM (inactive)
same,IC50,[11],> 80 µM (inactive)
O=S(=O)(c1ccc(Br)cc1)c1nc(-c2ccco2)oc1NCCCn1ccnc1,AC50,[12],108 µM (active)
O=S1(=O)CC=C(CSC(=S)NC2CCS(=O)(=O)C2)C1 (stereo unspecified),IC50,Interleukin-8 [13],3.68 µM (active)
same,IC50,Interleukin-8 [14],2.06 µM (active)
COc1cc(O)c(NC(C)=O)c2nonc12,IC50,SUMO-activating enzyme [15],7.24 µM (active)
same,IC50,SUMO-activating enzyme [16],74.2 µM (active)
same,IC50,[17],14.6 µM (active)
same,IC50,[18],8.37 µM (active)
COc1cc(/C=N/Nc2nc(Nc3ccc(C)cc3)nc(-n3nc(C)cc3C)n2)cc(OC)c1OC,EC50,[19],1.82 µM (active)
same,EC50,[20],11 µM (active)
same,AC50,[21],38.4 µM (active)
same,EC50,Streptokinase A,> 150 µM (not active)
same,EC50,[22],0.608 µM (active)
same,IC50,[23],> 64.6 µM (inactive)
same,IC50,[24],> 100 µM (inactive)
same,IC50,[25],> 100 µM (not active)
same,EC50,Streptococcus,15.5 µM (active)
same,AC50,Paired box protein Pax-8,6.57 µM (active)
same,IC50,Melanocortin receptor 4,> 64.6 µM (inactive)
Nc1cc(O)c2[nH]cnc2n1,IC50,[26],33.6 µM (inactive)
C[C@H](CO)N1C[C@H](C)[C@H](CN(C)Cc2ccc(C(F)(F)F)cc2)Oc2c(NC(=O)c3ccncc3)cccc2C1=O,AC50,[27],39 µM (inactive)
O=c1/c(=C\c2ccc(O)cc2)sc2n1C(c1ccccc1)C(c1ccccc1)=NN=2 (stereo unspecified),IC50,[28],32.1 µM (active)
same,AC50,Cytochrome P450 1A2,4.47 µM (inconclusive)
same,IC50,[29],13.7 µM (active)
same,CC50,[30],33 µM (active)
O=C(O)CN1CCN(CC(=O)O)CCN(CC(=O)O)CCN(CC(=O)O)CC1 [TETRAXETAN],EC50,[31],> 20 µM (inactive)
